According to patent publication US7462600B2, “Macrolides” (Pfizer Inc, priority 2004, dated 2008):
Values after ≈ are worked out from the molar mass of the structure shown. Read-outs that look alike come from different tables or passages of the source.

Columns and labels:
Format in all cases: cell-based
[1] = tested on: Haemophilus influenzae 1218; test: MIC, microtiter broth dilution (NCCLS M100-S14), H. influenzae 1218 (susceptible)
Procedure, shortened: (§1)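 Where available, resistant strains were tested alongside the susceptible parent they derive from. The MIC, determined by tray-based broth dilution and NCCLS M100-S14 interpretation, served as the comparison value.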

[2] = tested on: Streptococcus pneumoniae 1175; details: microtiter broth dilution
Procedure, shortened: as §1

[3] = tested on: Streptococcus pneumoniae 1095; details: microtiter broth dilution
Procedure, shortened: as §1

[4] = tested on: Streptococcus pneumoniae 1016; test: MIC, microtiter broth dilution (NCCLS M100-S14), S. pneumoniae 1016 (susceptible)
Procedure, shortened: as §1

[5] = tested on: Streptococcus pyogenes 1079; test: MIC, microtiter broth dilution (NCCLS M100-S14), S. pyogenes 1079 (ermB)
Procedure, shortened: as §1

[6] = H. influenzae 1218 (susceptible)
[7] = S. pneumoniae 1016 (susceptible)

SMILES	MIC H. influenzae 1218 [1, 6] [µg/mL]	MIC S. pneumo. 1175 ([2]; S. pneumoniae 1175 (mefA)) [µg/mL]	MIC S. pneumo. 1095 ([3]; S. pneumoniae 1095 (ermB)) [µg/mL]	MIC S. pneumo. 1016 [4, 7] [µg/mL]	MIC S. pyogenes 1079 ([5]; S. pyogenes 1079 (ermB)) [µg/mL]	MIC H. influenzae 1218 ([1]; Haemophilus influenzae 1218) [µg/mL]	MIC S. pneumo. 1175 ([2]; Streptococcus pneumoniae 1175) [µg/mL]	MIC S. pneumo. 1095 ([3]; Streptococcus pneumoniae 1095) [µg/mL]	MIC S. pneumo. 1016 ([4]; Streptococcus pneumoniae 1016) [µg/mL]	MIC S. pyogenes 1079 ([5]; Streptococcus pyogenes 1079) [µg/mL]
CCC1OC(=O)C(C)C(=O)C(C)C(OC2OC(C)CC(N(C)C)C2O)C(C)(OC)CC(C)C(=O)C(C)C2N(CC3CCN(Cc4nccc5ccccc45)C3)C(=O)OC12C (centres unmarked) [11.10]	0.12 (≈ 0.143 µM)	<0.06	<0.06	<0.06	64 (≈ 76.5 µM)	–	–	–	–	–
CCC1OC(=O)C(C)C(=O)C(C)C(OC2OC(C)CC(N(C)C)C2O)C(C)(OC)CC(C)C(=O)C(C)C2N(CC3CCN(Cc4c[nH]c5cc(=O)[nH]cc45)C3)C(=O)OC12C (centres unmarked) [13.02]	16 (≈ 19 µM)	4 (≈ 4.75 µM)	16 (≈ 19 µM)	0.12 (≈ 0.143 µM)	64 (≈ 76 µM)	–	–	–	–	–
CCC1OC(=O)C(C)C(=O)C(C)C(OC2OC(C)CC(N(C)C)C2O)C(C)(OC)CC(C)C(=O)C(C)C2N(CC3CCCN3C(=O)c3cccn(Cc4ccccc4)c3=O)C(=O)OC12C (centres unmarked) [10.36]	16 (≈ 17.6 µM)	0.5 (≈ 0.551 µM)	4 (≈ 4.41 µM)	<0.06	>64.00	–	–	–	–	–
CCC1OC(=O)C(C)C(=O)C(C)C(OC2OC(C)CC(N(C)C)C2O)C(C)(OC)CC(C)C(=O)C(C)C2N(CC3CN(C(=O)c4cccnc4)C3)C(=O)OC12C (centres unmarked) [4.03]	–	–	–	–	–	1.56 (≈ 1.98 µM)	0.78 (≈ 0.991 µM)	0.39 (≈ 0.496 µM)	0.02 (≈ 0.0254 µM)	>100.00
CCC1OC(=O)C(C)(F)C(=O)C(C)C(OC2OC(C)CC(N(C)C)C2O)C(C)(OC)CC(C)C(=O)C(C)C2N(C3CN(S(=O)(=O)c4cccc5nccnc45)C3)C(=O)OC12C (centres unmarked) [Example 3.98, 3-descladinosyl-11,12-dideoxy-2-fluoro-6-O-methyl-3-oxo-12,11-(oxycarbonyl-(1-(quinoxaline-5-sulfonyl)-azetidin-3-yl)-imino)-erythromycin A]	–	–	–	–	–	0.25 (≈ 0.285 µM)	<0.063	<0.063	<0.063	0.25 (≈ 0.285 µM)
CCC1OC(=O)C(C)C(=O)C(C)C(OC2OC(C)CC(N(C)C)C2O)C(C)(OC)CC(C)C(=O)C(C)C2N(C3CN(C(=O)c4ccc(-n5ccnc5)cc4)C3)C(=O)OC12C (centres unmarked) [Example 2.14]	–	–	–	–	–	4 (≈ 4.77 µM)	0.25 (≈ 0.298 µM)	2 (≈ 2.39 µM)	<0.06	>64.00
CCC1OC(=O)C(C)C(=O)C(C)C(OC2OC(C)CC(N(C)C)C2O)C(C)(OC)CC(C)C(=O)C(C)C2N(C3CN(Cc4c(Br)cnc5cccnc45)C3)C(=O)OC12C (centres unmarked) [Example 1.106, 3-descladinosyl-11,12-dideoxy-6-O-methyl-3-oxo-12,11-(oxycarbonyl-(1-(3-bromo-1,5-naphthyridine-4-methyl)-azetidin-3-yl)-imino)-erythromycin A]	–	–	–	–	–	1 (≈ 1.12 µM)	<0.063	<0.063	<0.063	0.25 (≈ 0.281 µM)
CCC1OC(=O)C(C)C(=O)C(C)C(OC2OC(C)CC(N(C)C)C2O)C(C)(OC)CC(C)C(=O)C(C)C2N(CC3CN(Cc4cn5cccnc5n4)C3)C(=O)OC12C (centres unmarked) [4.27]	–	–	–	–	–	1 (≈ 1.23 µM)	4 (≈ 4.92 µM)	>64.00	<0.06	>64.00
CCC1OC(=O)C(C)C(=O)C(C)C(OC2OC(C)CC(N(C)C)C2O)C(C)(OC)CC(C)C(=O)C(C)C2N(C3CN(Cc4cnn(-c5cccc(F)c5)c4)C3)C(=O)OC12C (centres unmarked) [Example 1.41, (1-[3-fluorophenyl]-pyrazol-4-yl)methyl]	–	–	–	–	–	0.12 (≈ 0.143 µM)	<0.06	<0.06	<0.06	>64.00
CCC1OC(=O)C(C)C(=O)C(C)C(OC2OC(C)CC(N(C)C)C2O)C(C)(OC)CC(C)C(=O)C(C)C2N(C3CN(S(=O)(=O)c4ccc5ncsc5c4)C3)C(=O)OC12C (centres unmarked) [Example 3.79]	–	–	–	–	–	0.25 (≈ 0.289 µM)	<0.06	<0.06	<0.06	1 (≈ 1.16 µM)
CCC1OC(=O)C(C)C(=O)C(C)C(OC2OC(C)CC(N(C)C)C2O)C(C)(OC)CC(C)C(=O)C(C)C2N(C3CN(S(=O)(=O)c4cccc5ccccc45)C3)C(=O)OC12C (centres unmarked) [Example 3.02, 3-descladinosyl-11,12-dideoxy-6-O-methyl-3-oxo-12,11-(oxycarbonyl-(1-(naphthalene-1-sulfonyl)-azetidin-3-yl)-imino)-erythromycin A]	–	–	–	–	–	0.12 (≈ 0.14 µM)	<0.06	<0.06	<0.06	0.5 (≈ 0.583 µM)
CC[C@H]1OC(=O)[C@H](C)C(=O)[C@H](C)[C@@H](O[C@@H]2O[C@H](C)C[C@H](N(C)C)[C@H]2O)[C@](C)(OC)C[C@@H](C)C(=O)[C@H](C)[C@H]2N(CC3(C)CN(Cc4c[nH]c5ncccc45)C3)C(=O)O[C@]12C [6.03]	–	–	–	–	–	0.5 (≈ 0.605 µM)	0.12 (≈ 0.145 µM)	<0.06	<0.06	16 (≈ 19.4 µM)
CCC1OC(=O)C(C)C(=O)C(C)C(OC2OC(C)CC(N(C)C)C2O)C(C)(OC)CC(C)C(=O)C(C)C2N(CC3CCN(C(=O)c4cccc5ncsc45)C3)C(=O)OC12C (centres unmarked) [13.14]	1 (≈ 1.17 µM)	<0.06	2 (≈ 2.33 µM)	<0.06	>64.00	–	–	–	–	–
CCC1OC(=O)C(C)C(=O)C(C)C(OC2OC(C)CC(N(C)C)C2O)C(C)(OC)CC(C)C(=O)C(C)C2N(CC3CCCN3C(=O)c3ccc4nccnc4c3)C(=O)OC12C.O=CO (centres unmarked) [10.12]	2	0.12	<0.06	<0.06	32	–	–	–	–	–
CCC1OC(=O)C(C)C(=O)C(C)C(OC2OC(C)CC(N(C)C)C2O)C(C)(OC)CC(C)C(=O)C(C)C2N(C3CN(C(COC)c4ccnc5ncccc45)C3)C(=O)OC12C (stereo not drawn) [Example 1.80, 3-descladinosyl-11,12-dideoxy-6-O-methyl-3-oxo-12,11-(oxycarbonyl-(1-(2-(methoxy)-1S-(1,8-napthyridin-4-yl)-ethyl)-azetidin-3-yl)-imino)-erythromycin A]	–	–	–	–	–	4 (≈ 4.68 µM)	0.125 (≈ 0.146 µM)	1 (≈ 1.17 µM)	<0.063	16 (≈ 18.7 µM)
CCC1OC(=O)C(C)C(=O)C(C)C(OC2OC(C)CC(N(C)C)C2O)C(C)(OC)CC(C)C(=O)C(C)C2N(C3CN(S(=O)(=O)c4cccc(-c5nnco5)c4)C3)C(=O)OC12C (centres unmarked) [Example 3.62, 3-descladinosyl-11,12-dideoxy-6-O-methyl-3-oxo-12,11-(oxycarbonyl-(1-(3-(1,3,4-oxadiazol-2-yl)benzenesulfonyl)-azetidin-3-yl)-imino)erythromycin A]	–	–	–	–	–	2 (≈ 2.28 µM)	0.5 (≈ 0.571 µM)	<0.06	<0.06	8 (≈ 9.13 µM)
